Data as given in PubChem BioAssay (NCI).
Where “and” joins values, the source holds several entries; their conditions need not be identical. Equal values may be shown once.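 Results reflect a 48-hour exposure of cells in 96-well plates to compound at five concentrations. The concentration for 50% growth inhibition is given as GI50. Definition used: TGI = concentration required for complete inhibition of growth.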

Key:
Test in all cases: DTP human tumour cell line panel, 48 h
HL-60(TB) leukemia = test system: HL-60(TB) leukemia
HOP-92 NSCLC = test system: HOP-92 NSCLC
NCI-H226 lung = test system: NCI-H226 lung
NCI-H522 lung = test system: NCI-H522 lung
OVCAR-5 ovarian = test system: OVCAR-5 ovarian
RXF 393 renal = test system: RXF 393 renal
SK-MEL-28 melanoma = test system: SK-MEL-28 melanoma
SN12C renal = test system: SN12C renal
SW-620 colon = test system: SW-620 colon
HCT-15 colon = test system: HCT-15 colon

Row | Structure (SMILES) | TGI (HL-60(TB) leukemia) | TGI (HOP-92 NSCLC) | TGI (NCI-H226 lung) | TGI (NCI-H522 lung) | TGI (OVCAR-5 ovarian) | TGI (RXF 393 renal) | TGI (SK-MEL-28 melanoma) | TGI (SN12C renal) | TGI (SW-620 colon) | GI50 (HCT-15 colon) | TGI (HCT-15 colon) | GI50 (HL-60(TB) leukemia) | GI50 (HOP-92 NSCLC) | GI50 (NCI-H226 lung) | GI50 (NCI-H522 lung) | GI50 (OVCAR-5 ovarian) | GI50 (RXF 393 renal) | GI50 (SK-MEL-28 melanoma) | GI50 (SN12C renal) | GI50 (SW-620 colon)
1 | CC1=CC(=O)c2c(O)cccc2C1=O | 0.398 µM | 1.43 µM | 24.6 µM | 3.01 µM | 3.78 µM | 3.07 µM | 3.28 µM | 3.39 µM | 4.15 µM | – | – | – | – | – | – | – | – | – | – | –
2 | C=C(C)[C@@H]1CC=C(CO)CC1 | > 10 µM and 267 µM | > 10 µM and 830 µM | > 10 µM and 1090 µM | > 10 µM and 1150 µM | > 10 µM and 798 µM | > 10 µM and 569 µM | > 10 µM and 829 µM | > 10 µM and 1220 µM | 1340 µM | > 10 µM | > 10 µM and 790 µM | > 10 µM | > 10 µM | > 10 µM | > 10 µM | > 10 µM | > 10 µM | > 10 µM | > 10 µM | –
3 | N=C(N)c1nn(C2OC(CO)C(O)C2O)c2nc[nH]c(=O)c12 (configuration not stated) | 0.538 µM | 5.93 µM | 3.74 µM | 0.69 µM | 14.2 µM | 4.89 µM | 1.55 µM | 2.37 µM | 3.28 µM | 0.587 µM | 5.71 µM | 0.207 µM | 1.29 µM | 0.611 µM | 0.239 µM | 2.85 µM | 0.696 µM | 0.336 µM | 0.315 µM | 0.53 µM
4 | CS(=O)(=O)CC1=Nc2nnc(CCCCCCCc3nnc4n3C(=O)C(CS(C)(=O)=O)=N4)n2C1=O | > 100 µM | > 100 µM | > 100 µM | > 100 µM | > 100 µM | > 100 µM | > 100 µM | > 100 µM | > 100 µM | – | > 100 µM | – | – | – | – | – | – | – | – | –
5 | O=C(Nc1cccc(Cl)c1)Nc1ncc(CCNc2ncnc3ccsc23)s1 | 28.9 µM and > 10 µM | 10.9 µM and > 10 µM | 8.98 µM and > 10 µM | 9.89 µM and > 10 µM | 25.5 µM and > 10 µM | 10.1 µM and > 10 µM | 17.4 µM and > 10 µM | 18.6 µM and > 10 µM | 65.3 µM and > 10 µM | 2.99 µM and 1.79 µM | 20.4 µM and > 10 µM | 4.93 µM and 3.37 µM | 0.549 µM and 1.55 µM | 1.86 µM and 2.06 µM | 1.76 µM and 1.34 µM | 9.88 µM and > 10 µM | 1.93 µM and 2.16 µM | 3.85 µM and 2.42 µM | 3.91 µM and 3.82 µM | 14.5 µM and > 10 µM
6 | CCc1c(C)[nH]c(/C=C2\N=C(c3ccc[nH]3)C=C2OC)c1C | 2.1 µM | 0.682 µM | 8.83 µM | 2.34 µM | 7.3 µM | 4.11 µM | 1.87 µM | 15.6 µM | 6.56 µM | 0.0935 µM | 3.75 µM | 0.127 µM | 0.135 µM | 0.812 µM | 0.576 µM | 0.413 µM | 0.473 µM | 0.365 µM | 0.627 µM | –
7 | CC(=O)[O][Pb]([O]C(C)=O)([c]1ccccc1)[c]1ccccc1 | > 100 µM | > 100 µM | > 100 µM | 7.46 µM | > 100 µM | 5.69 µM | > 100 µM | > 100 µM | > 100 µM | 7.06 µM | > 100 µM | > 100 µM | 3.62 µM | 64.2 µM | 0.657 µM | 25.9 µM | 1.41 µM | 6.72 µM | 3.61 µM | 5.42 µM
8 | O=C(O)CSSCC(=O)O | > 100 µM | > 100 µM | > 100 µM | > 100 µM | > 100 µM | > 100 µM | > 100 µM | > 100 µM | > 100 µM | – | > 100 µM | – | – | – | – | – | – | – | – | –
9 | COc1cccc(C2=C(c3cn(C)c4ccccc34)C(=O)NC2=O)c1 | > 25 µM | > 25 µM | > 25 µM | 25 µM | > 25 µM | > 25 µM | > 25 µM | > 25 µM | > 25 µM | 5.57 µM | > 25 µM | 11.2 µM | > 25 µM | 7.96 µM | 6.35 µM | > 25 µM | 6.43 µM | > 21.7 µM | 12.5 µM | 9.13 µM
10 | CC12CCC=CC1CCC1C2CCC2(C)C(c3ccc(=O)oc3)CCC12O (configuration not stated) | 0.0689 µM | 0.639 µM | 0.614 µM | 0.283 µM | 0.485 µM | 0.047 µM | 1.38 µM | 0.571 µM | 0.33 µM | 0.0923 µM | 0.428 µM | 0.0257 µM | 0.123 µM | 0.224 µM | 0.0398 µM | 0.176 µM | 0.0167 µM | 0.256 µM | 0.0422 µM | 0.0558 µM
11 | O=C(O)[C@@H]1C2CC([C@@H]1C(=O)O)[C@H](N1C(=O)CCC1=O)[C@@H]2Br (some centres not stated) | > 100 µM | > 100 µM | > 100 µM | > 100 µM | > 100 µM | > 100 µM | > 100 µM | > 100 µM | > 100 µM | – | > 100 µM | – | – | – | – | – | – | – | – | –
12 | CCN(CC)c1ccc(/C=C/c2cc(C)c3ccccc3n2)cc1 | 27.8 µM | 22.9 µM | 91.3 µM | 3.91 µM | 75.3 µM | 9.44 µM | > 100 µM | > 100 µM | 9.21 µM | 2.27 µM | 26.4 µM | 3.42 µM | 3.63 µM | 11.9 µM | 1.31 µM | 7.09 µM | 3.43 µM | 6.75 µM | 7.27 µM | 1.87 µM
13 | CCc1ccc(NC(=O)Nc2c[nH]c3ccccc23)cc1 | 5.48 µM | > 53.1 µM | > 52.4 µM | 2.67 µM | > 57.9 µM | > 59.4 µM | > 56.6 µM | > 36.2 µM | > 55 µM | 17.8 µM | > 55.2 µM | 0.811 µM | 12 µM | 7.29 µM | 1.18 µM | 34 µM | 11.6 µM | > 39 µM | 2.22 µM | > 38.3 µM
14 | CC[C@H](Nc1nc(N)nc(C)c1C#N)c1nc2cccc(CN(C)c3ncc(C(=O)NO)cn3)c2c(=O)n1-c1ccccc1 | 3.48 µM | 1.52 µM | 7.07 µM | 4.27 µM | 3.05 µM | 1.33 µM | 3.16 µM | 6.03 µM | 3.43 µM | 2.11 µM | 12 µM | 0.262 µM | 0.204 µM | 1.18 µM | 0.174 µM | 0.678 µM | 0.47 µM | 0.604 µM | 1.11 µM | 0.392 µM
15 | COc1cc2c(cc1OC)-c1ccc3cc4c(cc3c1N(CCN1CCCC1)C2)OCO4 | 2.7 µM | 12 µM | 3.16 µM | 1.43 µM | 4.9 µM | 2.72 µM | 20.3 µM | 1.43 µM | 2.28 µM | 1.5 µM | 3.4 µM | 0.882 µM | 1.79 µM | 0.876 µM | 0.217 µM | 1.34 µM | 0.794 µM | 7.09 µM | 0.345 µM | 0.472 µM
16 | Cc1cc(N2CCCCC2)nc(N(CCNc2ccnc3cc(Cl)ccc23)Cc2ccco2)n1 | 3.94 µM | 21.7 µM | 3.96 µM | 3.52 µM | 6.84 µM | 3.32 µM | 3.75 µM | 3.56 µM | 3.08 µM | 1.44 µM | 3.3 µM | 1.91 µM | 5.73 µM | 1.69 µM | 1.61 µM | 2.4 µM | 1.56 µM | 1.83 µM | 1.83 µM | 1.53 µM
17 | CC1=C(C(=O)OCc2ccccc2)C(c2ccc3c(c2)OCO3)n2c(nc3ccccc32)N1 (configuration not stated) | > 100 µM | > 100 µM | > 100 µM | > 57.6 µM | > 100 µM | > 100 µM | > 100 µM | – | > 100 µM | 0.36 µM | > 100 µM | 0.341 µM | > 100 µM | > 100 µM | 0.164 µM | > 100 µM | 0.305 µM | > 100 µM | – | 0.346 µM
18 | CCOC(=O)c1c2c(n(CC(C)C)c1C)-c1nc[nH]c1C(=O)C2=O | 2.82 µM | 16.2 µM | 28.5 µM | 29.4 µM | – | 26.8 µM | 33.4 µM | 26.2 µM | 39.1 µM | 14.7 µM | 27.9 µM | 0.388 µM | 3.82 µM | 15 µM | 15.7 µM | – | 13.9 µM | 19.3 µM | 13.4 µM | 20.8 µM
19 | COc1cc(Cn2cc3c(c2)-c2oncc2CC3)cc(OC)c1OC | 0.456 µM | > 100 µM | > 100 µM | 1.29 µM | > 100 µM | > 100 µM | – | – | > 100 µM | 0.0415 µM | > 100 µM | < 0.0177 µM | 31 µM | 0.256 µM | 0.0398 µM | 0.0735 µM | 0.0255 µM | – | 0.0435 µM | 0.0327 µM
20 | COc1ccc2c(c1)CCC1C2CCC2(C)C1CCC2(O)CNC(=O)CCCCC1CCSS1 (configuration not stated) | – | 23 µM | > 100 µM | > 100 µM | > 100 µM | 44 µM | > 100 µM | > 100 µM | > 100 µM | 3.56 µM | > 100 µM | – | 4.9 µM | 13.3 µM | 23.7 µM | > 100 µM | 11.7 µM | 64.9 µM | 16.6 µM | 12.4 µM
21 | CC1(Sc2ccccc2)CN(Cc2ccccc2)C1=O (configuration not stated) | > 100 µM | 86 µM | > 100 µM | > 100 µM | – | > 100 µM | > 100 µM | > 100 µM | > 100 µM | – | > 100 µM | – | – | – | – | – | – | – | – | –
